From patent US5393761A, “3-arylindole compounds” (H. Lundbeck A/S, priority 1990, dated 1995)
Structures can show the parent of a compound that is named as a salt.

Key:
[1] = biological target: dopamine D-2 receptors in rat corpus striatum (Rattus norvegicus, UniProt P61169); assay: Inhibition of ^3H-spiperone (spiroperidol) binding to dopamine D-2 receptors in rat corpus striatum in vitro; conditions: 0.5 nM ^3H-spiperone, rat striatum membranes, 37° C., 10 min
Experimental: By this method the inhibition by drugs of the binding of ^3 H-spiperone (=^3 H-spiroperidol) (0.5 nM) to dopamine D-2 receptors in membranes from rat corpus striatum is determined in vitro. Method and results in Hyttel & Larsen, J. Neurochem, 44, 1615-1622, 1985).
Male Wistar (Mol:Wistar) rats (125-250 g) are sacrificed and striatal tissue is dissected and weighed. The tissue is homogenized (Ultra Turrax, 10 sec.) in 10 ml of ice-cold 50 mM K-phosphate buffer pH 7.4 (at 25° C.). The homogenate is centrifuged twice at 20,000 g for 10 min. at 4° C. with rehomogenization of the pellet in 10 ml ice-cold buffer. The final pellet is homogenized in 1300 vol (w/v) ice-cold buffer.
Incubation tubes kept on ice in triplicate receive 100 μl of drug solution in water (or water for total binding) and 4000 μl Of tissue suspension (final tissue content corresponds to 3.08 mg original tissue). The binding experimental is initiated by addition of 100 μl of ^3 H-spiperone (final concentration 0.5 nM) and by placing the tubes in a 37° C. water bath. After incubation for 10 min. the samples are filtered under vacuum (0-50 mBar) through Whatman GF/F filters (25 mm). The tubes are rinsed with 5 ml ice-cold buffer which are then poured on the filters. Thereafter, the filters are washed with 2×5 ml of buffer. The filters are placed in counting vials and 4 ml of appropriate scintillation fluid (e.g. Picofluor ™15) are added. After shaking for 1 h and storage 2 hrs in the dark the content of radioactivity is determined by liquid scintillation counting. Specific binding is obtained by subtracting the nonspecific binding in the presence of 10 μM of 6,7-ADTN.
For determination of the inhibition of binding five concentrations of drugs covering 3 decades are used.
The measured cpm are plotted against drug concentration on semilogarithmic paper and the best fitting S-shaped curve is drawn. […] England, specific activity 15-25 Ci/mmol.

[2] = biological target: T1, serotonin S2 (5-HT2) receptors in rat cortex (Rattus norvegicus, UniProt P14842); assay: Inhibition of ^3H-ketanserin binding to serotonin S2 (5-HT2) receptors in rat cortex in vitro; conditions: 0.5 nM ^3H-ketanserin, rat cortex membranes, 37° C., 30 min
T1 construct: Serotonin S2 (5-HT2) receptors in membranes from rat; from tissue; host or cells: cerebral cortex membranes of male Wistar rats (printed 'conical tissue', a misprint for cortical)
Experimental: Method in Hyttel, Pharmacology & Toxicology, 61, 126-129, 1987.
Male Wistar (Mol:Wist) rats (125-250 g) are sacrificed and conical tissue is dissected and weighed. The tissue is homogenized (Ultra Turrax, 10 sec.) in 10 ml of ice-cold 50 mM tris buffer pH 7.7 (at 25° C.). The centrifuge glassware used in this step has been rinsed by sonication for 10 min. in ethanol. The homogenate is centrifuged twice at 20,000 g for 10 min. at 4° C. with rehomogenization of the pellet in 10 ml ice-cold buffer. The final pellet is homogenized in 500 vol (w/v)ice-cold buffer.
Incubation tubes kept on ice in triplicate receive 100 μl Of drug solution in water (or water for total binding) and 2000 μl of tissue suspension (final tissue content corresponds to 4 mg original tissue). […] After incubation for 30 min. the samples are filtered under vacuum (0-50 mBar) through Whatman GF/F filters (25 mm). The tubes are rinsed with 5 ml ice-cold buffer which are then poured on the filters. Thereafter, the filters are washed with 2×5 ml of buffer. The filters are placed in counting vials and 4 ml of appropriate scintillation fluid (e.g. Picofluor ™15) are added. After shaking for 1 h and storage 2 hrs in the dark the content of radioactivity is determined by liquid scintillation counting. Specific binding is obtained by subtracting the nonspecific binding in the presence of 1 μM mianserin. For determination of the inhibition of binding five concentrations of drugs covering 3 decades are used.
The IC50 value is determined as the concentration at which the binding is 50% of the total binding in control samples minus the nonspecific binding in the presence of 1 μM mianserin.

T1 sequence (P14842 whole entry): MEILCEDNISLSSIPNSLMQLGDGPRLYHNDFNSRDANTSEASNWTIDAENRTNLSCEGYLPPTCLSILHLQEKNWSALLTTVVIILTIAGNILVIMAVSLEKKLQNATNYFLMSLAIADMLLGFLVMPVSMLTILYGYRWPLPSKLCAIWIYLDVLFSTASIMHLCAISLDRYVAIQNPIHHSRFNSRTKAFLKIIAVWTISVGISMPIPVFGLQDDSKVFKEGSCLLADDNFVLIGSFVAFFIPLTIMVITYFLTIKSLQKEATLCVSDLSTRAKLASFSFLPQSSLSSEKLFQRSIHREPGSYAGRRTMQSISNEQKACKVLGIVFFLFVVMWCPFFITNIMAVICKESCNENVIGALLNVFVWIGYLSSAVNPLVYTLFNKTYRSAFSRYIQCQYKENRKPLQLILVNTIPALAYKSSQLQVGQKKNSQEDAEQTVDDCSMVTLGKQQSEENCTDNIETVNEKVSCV
dopamine D-2 receptors in rat corpus striatum, sequence (P61169 whole entry): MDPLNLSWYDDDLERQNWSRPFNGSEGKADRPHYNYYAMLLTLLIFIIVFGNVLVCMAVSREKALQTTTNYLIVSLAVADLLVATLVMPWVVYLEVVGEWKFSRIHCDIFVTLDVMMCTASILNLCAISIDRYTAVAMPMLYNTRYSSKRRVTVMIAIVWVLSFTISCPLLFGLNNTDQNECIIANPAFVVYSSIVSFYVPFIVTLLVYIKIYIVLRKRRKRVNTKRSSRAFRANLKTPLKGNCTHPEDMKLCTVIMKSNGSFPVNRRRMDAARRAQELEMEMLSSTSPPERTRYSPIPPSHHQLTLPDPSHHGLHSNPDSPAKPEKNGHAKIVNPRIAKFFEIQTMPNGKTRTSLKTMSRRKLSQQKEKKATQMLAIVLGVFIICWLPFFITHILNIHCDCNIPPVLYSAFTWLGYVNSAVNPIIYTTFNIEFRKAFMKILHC

| Compound | IC50 [1] | IC50 [2] |
| --- | --- | --- |
| O=C1NCCN1CCN1CCC(n2cc(-c3ccc(F)cc3)c3cc(C(F)(F)F)ccc32)CC1 [Compound 7b, 3-(4-Fluorophenyl)-1-[1-[2-(imidazolidin-2-on-1-yl)ethyl]-4-piperidyl]-5-trifluoromethyl-1H-indole] | > 1000 nM | 6.2 nM |
| CN1CCN(CCN2CCC(n3cc(-c4ccc(F)cc4)c4cc(Cl)ccc43)CC2)C1=O [Compound 4f, 5-Chloro-3-(4-fluorophenyl)-1-[1-[2-(3-methylimidazolidin-2-on-1-yl)ethyl]-piperidyl]-1H-indole] | 550 nM | 1.4 nM |
| Cc1c(-c2ccccc2)c2cc(Cl)ccc2n1C1CCN(C)CC1 [Compound 9b, 5-Chloro-2-methyl-3-phenyl-1-(1-methyl-4-piperidyl)-1H-indole] | 2900 nM | 17 nM |
| O=C1NCCN1CCN1CCC(n2nc(-c3ccc(F)cc3)c3cc(C(F)(F)F)ccc32)CC1 [Compound 4u, 3-(4-Fluorophenyl)-1-[1-[2-(imidazolidin-2-on-1-yl)ethyl]-4-piperidyl]-5-trifluoromethyl-1H-indazole] | 42000 nM | 220 nM |
| Cc1ccc2c(c1)c(-c1ccc(F)cc1)cn2C1CCN(CCNC(=O)N(C)C)CC1 [Compound 13b, 1-[1-[2-(3,3-Dimethyl-1-ureido)ethyl]-4-piperidyl]-3-(4-fluorophenyl)-5-methyl-1H-indole] | 260 nM | 2.3 nM |
| Cc1ccc2c(c1)c(-c1ccc(F)cc1)cn2C1CCN(CCN2CCN(C)C2=O)CC1 [Compound 4i, 3-(4-Fluorophenyl)-5-methyl-1-[1-[2-(3-methylimidazolidin-2-on-1-yl)ethyl]-4-piperidyl]-1H-indole, fumarate] | 680 nM | 1.4 nM |
| O=C1NCCN1CCN1CC=C(n2cc(-c3ccc(F)cc3)c3cc(C(F)(F)F)ccc32)CC1 [Compound 6f, 3-(4-Fluorophenyl)-1-[1-[2-(imidazolidin-2-on-1-yl)ethyl]-1,2,3,6-tetrahydropyridin-4-yl]-5-trifluoromethyl-1H-indole] | 440 nM | 3.6 nM |
| Cc1ccc2c(c1)c(-c1ccc(F)cc1)cn2C1CCN(CCN2CCCC2=O)CC1 [Compound 4j, 3-(4-Fluorophenyl)-5-methyl-1-[1-[2-(2-pyrrolidinon-1-yl)ethyl]-4-piperidyl]-1H-indole, oxalate] | 1200 nM | 4.5 nM |
| CC(C)N1CCN(CCN2CCC(n3cc(-c4ccc(F)cc4)c4cc(F)ccc43)CC2)C1=O [Compound 4n, 5-Fluoro-3-(4-fluorophenyl)-1-[1-[2-[3-(2-propyl)imidazolidin-2-on-1-yl]ethyl]-4-piperidyl]-1H-indole] | 190 nM | 3.1 nM |
| Cc1ccc2c(c1)c(-c1ccc(F)cc1)cn2C1=CCN(CCN2CCNC2=O)CC1 [Compound 6c, 3-(4-Fluorophenyl)-1-[1-[2-(imidazolidin-2-on-1-yl)ethyl]-1,2,3,6-tetrahydropyridin-4-yl]-5-methyl-1H-indole] | 320 nM | 1.4 nM |
| Cc1ccc2c(c1)c(-c1ccc(F)cc1)cn2C1CCN(C(C)C)CC1 [Compound 4s, 3-(4-Fluorophenyl)-5-methyl-1-[1-(2-propyl)-4-piperidyl]-lH-indole, maleate] | 330 nM | 12 nM |
| Cc1ccc2c(c1)c(-c1ccc(F)cc1)c(Cl)n2C1CCN(CCN2CCN(C(C)C)C2=O)CC1 [Compound 27a, 2-Chloro-3-(4-fluorophenyl)-5-methyl-1-[1-[2-[3-(2-propyl)imidazolidin-2-on-1-yl]ethyl]-4-piperidyl]-1H-indole] | 3200 nM | 10 nM |
| O=C1NCCN1CCN1CCC(n2cc(-c3ccc(F)cc3)c3ccc(Cl)cc32)CC1 [Compound 4b, 6-Chloro-3-(4-fluorophenyl)-1-[1-[2-(imidazolidin-2-on-1-yl)ethyl]-4-piperidyl]-1H-indole] | 37 nM | 1.9 nM |
| Cc1ccc2c(c1)C(c1ccc(F)cc1)CN2C1CCN(CCN2CCNC2=O)CC1 (centres unmarked) [Compound 18b, 2,3-Dihydro-3-(4-fluorophenyl)-1-[1-[2-(imidazolidin-2-on-1-yl)ethyl]-4-piperidyl]-5-methyl-1H-indole] | 1100 nM | 4.3 nM |
| CC(C)N1CCN(CCN2CCC(n3cc(-c4ccc(F)cc4)c4cc(C(F)(F)F)ccc43)CC2)C1=O [Compound 4v, 3-(4-Fluorophenyl)-1-[1-[2-[3-(2-propyl)imidazolidin-2-on-1-yl]ethyl]-4piperidyl]-5-trifluoromethyl-1H-indole] | > 1000 nM | 11 nM |
| Cc1ccc2c(c1)c(-c1ccc(F)cc1)cn2C1CCN(CCN2CCNC2=O)CC1 [Compound 4g, 3-(4-Fluorophenyl)-1-[1-[2-(imidazolidin-2-on-1-yl)ethyl]-4-piperidyl]-5-methyl-1H-indole] | 920 nM | 1.6 nM |
| Cc1ccc2c(c1)c(-c1ccc(F)cc1)cn2C1CCN(C)CC1 [Compound 11a, 3-(4-Fluorophenyl)-5-methyl-1-(1-methyl-4-piperidyl)-1H-indole, fumarate] | 540 nM | 4.5 nM |
| CC(=O)N1CCN(CCN2CCC(n3cc(-c4ccc(F)cc4)c4cc(C)ccc43)CC2)C1=O [Compound 21a, 1-[1-[2-(3-Acetylimidazolidin-2-on-1-yl)ethyl]-4-piperidyl]-3-(4-fluorophenyl)-5-methyl-1H-indole, oxalate] | 890 nM | 18 nM |
| CC(C)N1CCN(CCN2CCC(n3cc(-c4ccccc4)c4cc(Cl)ccc43)CC2)C1=O [Compound 4q, 5-Chloro-3-phenyl-1-[1-[2-[3-(2-propyl)imidazolidin-2-on-1-yl]ethyl]-4-piperidyl)-1H-indole] | 3000 nM | 25 nM |
| Cc1ccc2c(c1)c(-c1ccc(F)cc1)cn2C1=CCN(C)CC1 [Compound 6d, 3-(4-Fluorophenyl)-5-methyl-1-(1-methyl-1,2,3,6-tetrahydropyridin-4-yl)-1H-indole, maleate] | 32 nM | 4.4 nM |
| CN1CCN(CCN2CCC(n3cc(-c4ccc(F)cc4)c4ccc(Cl)cc43)CC2)C1=O [Compound 4a, 6-Chloro-3-(4-fluorophenyl)-1-[1-[2-(3-methylimidazolidin-2-on-1-yl)ethyl]-4-piperidyl)-1H-indole, maleate] | 46 nM | 1.5 nM |
| CC(C)N1CCN(CCN2CCC(n3cc(-c4ccc(F)cc4)c4ccccc43)CC2)C1=O [Compound 4l, 3-(4-Fluorophenyl)-1-[1-[2-[3-(2-propyl)imidazolidin-2-on-1-yl]ethyl]-4-piperidyl]-1H-indole, hydrochloride, hydrate] | 74 nM | 3.3 nM |
| CC(C)N1CCN(CCN2CCC(n3cc(-c4ccc(F)cc4)c4cc(Cl)ccc43)CC2)C1=O [Compound 4e] | 570 nM | 5.4 nM |
| Cc1ccc2c(c1)c(-c1ccc(F)cc1)c(C)n2C1CCN(CCN2CCNC2=O)CC1 [Compound 7a, 2,5-Dimethyl-3-(4-fluorophenyl)-1-[1-[2-(imidazolidin-2-on-1-yl)ethyl]-4-piperidyl]-1H-indole] | 6900 nM | 3.4 nM |
| O=C1NCCN1CCN1CCC(N2CC(c3ccc(F)cc3)c3cc(F)ccc32)CC1 (centres unmarked) [Compound 4r, 2,3-Dihydro-3-(4-fluorophenyl)-1-[1-[2-(imidazolidin-2-on-1-yl)ethyl]-4-piperidyl]-5-fluoro-1H-indole] | 230 nM | 3.4 nM |
